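Each compound was tested at five concentrations against cells in 96-well plates for 48 hours. At the GI50, growth is halved. TGI marks complete inhibition of growth.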
Key:
Test in all cases: DTP human tumour cell line panel, 48 h
NCI-H460 lung = system: NCI-H460 lung
SK-MEL-2 melanoma = system: SK-MEL-2 melanoma
HS 578T breast = system: HS 578T breast
SF-539 CNS = system: SF-539 CNS
SK-OV-3 ovarian = system: SK-OV-3 ovarian
DU-145 prostate = system: DU-145 prostate
UO-31 renal = system: UO-31 renal
SF-268 CNS = system: SF-268 CNS
SK-MEL-28 melanoma = system: SK-MEL-28 melanoma
NCI-H522 lung = system: NCI-H522 lung

With `COc1ccc2c(c1)C(=Nc1ccc(F)c(Cl)c1)c1c-2c(Nc2ccc(F)c(Cl)c2)nc2ccccc12` the GI50 (NCI-H460 lung) was > 100 µM, the TGI (NCI-H460 lung) was > 100 µM and the GI50 (SK-MEL-2 melanoma) was 23.6 µM. The TGI (SK-MEL-2 melanoma) was > 71.8 µM, the GI50 (HS 578T breast) was 35.3 µM and the TGI (HS 578T breast) was 98.5 µM. The GI50 (SF-539 CNS) was 27 µM, the TGI (SF-539 CNS) was > 74.9 µM and the GI50 (SK-OV-3 ovarian) was 18.8 µM. For the same compound, the TGI (SK-OV-3 ovarian) was 98.6 µM, the GI50 (DU-145 prostate) was > 100 µM and the TGI (DU-145 prostate) was > 100 µM. The GI50 (UO-31 renal) was > 100 µM, the TGI (UO-31 renal) was > 100 µM and the GI50 (SF-268 CNS) was 29.7 µM. The TGI (SF-268 CNS) was > 100 µM, the GI50 (SK-MEL-28 melanoma) was > 100 µM and the TGI (SK-MEL-28 melanoma) was > 100 µM. The GI50 (NCI-H522 lung) was 44.3 µM and the TGI (NCI-H522 lung) was > 100 µM.
In the case of `Cc1ccc(/C=N/NC(=O)c2ccccc2Oc2ccccc2)o1`, the GI50 (NCI-H460 lung) is reported as 44.4 µM, the TGI (NCI-H460 lung) is reported as > 100 µM and the GI50 (SK-MEL-2 melanoma) is reported as 25.5 µM. The TGI (SK-MEL-2 melanoma) was > 90.9 µM, the GI50 (HS 578T breast) was 46.9 µM and the TGI (HS 578T breast) was > 100 µM. For the same compound, the GI50 (SF-539 CNS) was > 83.6 µM, the TGI (SF-539 CNS) was > 100 µM and the GI50 (SK-OV-3 ovarian) was 77.6 µM. For the same compound, the TGI (SK-OV-3 ovarian) was > 100 µM, the GI50 (DU-145 prostate) was 73.2 µM and the TGI (DU-145 prostate) was > 100 µM. The GI50 (UO-31 renal) was 44.8 µM, the TGI (UO-31 renal) was > 100 µM and the GI50 (SF-268 CNS) was 42.9 µM. For the same compound, the TGI (SF-268 CNS) was > 100 µM, the GI50 (SK-MEL-28 melanoma) was 36.6 µM and the TGI (SK-MEL-28 melanoma) was > 100 µM. For the same compound, the GI50 (NCI-H522 lung) was 25.8 µM and the TGI (NCI-H522 lung) was > 100 µM.
For `C=C1C(=O)O[C@H]2[C@H]1CC/C(COC(=O)c1cccnc1N)=C\CC[C@@]1(C)O[C@@H]21`, the GI50 (NCI-H460 lung) was 3.09 µM, the TGI (NCI-H460 lung) was 10.8 µM and the GI50 (SK-MEL-2 melanoma) was 3.16 µM. For the same compound, the TGI (SK-MEL-2 melanoma) was 12.5 µM, the GI50 (HS 578T breast) was 4.15 µM and the TGI (HS 578T breast) was 65.1 µM. It also gave a GI50 (SF-539 CNS) of 2.56 µM, a TGI (SF-539 CNS) of 8.74 µM and a GI50 (SK-OV-3 ovarian) of 12.2 µM. The TGI (SK-OV-3 ovarian) was 73 µM, the GI50 (DU-145 prostate) was 2.45 µM and the TGI (DU-145 prostate) was 12.7 µM. The GI50 (UO-31 renal) was 2.17 µM, the TGI (UO-31 renal) was 10.2 µM and the GI50 (SF-268 CNS) was 3.54 µM. It also gave a TGI (SF-268 CNS) of 16.5 µM, a GI50 (SK-MEL-28 melanoma) of 2.01 µM and a TGI (SK-MEL-28 melanoma) of 8.85 µM. It also gave a GI50 (NCI-H522 lung) of 0.379 µM and a TGI (NCI-H522 lung) of 2 µM.
In the case of `CC1=CC(=O)N(c2cccc3c(N4C(=O)C=C(C)C4=O)cccc23)C1=O`, the GI50 (NCI-H460 lung) is reported as 19.5 µM, the TGI (NCI-H460 lung) is reported as 47.7 µM and the GI50 (SK-MEL-2 melanoma) is reported as 31.5 µM. For the same compound, the TGI (SK-MEL-2 melanoma) was > 100 µM, the GI50 (HS 578T breast) was 18.6 µM and the TGI (HS 578T breast) was > 100 µM. For the same compound, the GI50 (SF-539 CNS) was 3.37 µM, the TGI (SF-539 CNS) was 26.2 µM and the GI50 (SK-OV-3 ovarian) was 53 µM. For the same compound, the TGI (SK-OV-3 ovarian) was > 100 µM, the GI50 (DU-145 prostate) was 4.08 µM and the TGI (DU-145 prostate) was 14.4 µM. It also gave a GI50 (UO-31 renal) of 1.78 µM, a TGI (UO-31 renal) of 4.44 µM and a GI50 (SF-268 CNS) of 6.37 µM. For the same compound, the TGI (SF-268 CNS) was 23.8 µM, the GI50 (SK-MEL-28 melanoma) was 7.81 µM and the TGI (SK-MEL-28 melanoma) was 43.5 µM. For the same compound, the GI50 (NCI-H522 lung) was 0.693 µM and the TGI (NCI-H522 lung) was 1.79 µM.
Compound `Cc1sc(C(=O)c2cncnc2N[C@@H]2C[C@H](COS(N)(=O)=O)[C@@H](O)C2)cc1[C@@H]1NCCc2ccc(Cl)cc21` has a GI50 (NCI-H460 lung) of 0.466 µM, a TGI (NCI-H460 lung) of 20.6 µM and a GI50 (SK-MEL-2 melanoma) of 5.58 µM. It also gave a TGI (SK-MEL-2 melanoma) of 23.9 µM, a GI50 (HS 578T breast) of 6.08 µM and a TGI (HS 578T breast) of 44 µM. The GI50 (SF-539 CNS) was 1.48 µM, the TGI (SF-539 CNS) was 20.3 µM and the GI50 (SK-OV-3 ovarian) was 2.65 µM. For the same compound, the TGI (SK-OV-3 ovarian) was 25.2 µM, the GI50 (DU-145 prostate) was 13.2 µM and the TGI (DU-145 prostate) was 27.8 µM. It also gave a GI50 (UO-31 renal) of 3.66 µM, a TGI (UO-31 renal) of 24.6 µM and a GI50 (SF-268 CNS) of 14.4 µM. It also gave a TGI (SF-268 CNS) of 32.4 µM, a GI50 (SK-MEL-28 melanoma) of 9.88 µM and a TGI (SK-MEL-28 melanoma) of 22.1 µM. The GI50 (NCI-H522 lung) was 3.49 µM and the TGI (NCI-H522 lung) was 25.9 µM.
In the case of `COc1cccc(Nc2ncnc3cc(NC(=O)CCl)ccc23)c1`, the GI50 (NCI-H460 lung) is reported as 1.32 µM, the TGI (NCI-H460 lung) is reported as 3.08 µM and the GI50 (SK-MEL-2 melanoma) is reported as 1.69 µM. It also gave a TGI (SK-MEL-2 melanoma) of 3.48 µM, a GI50 (HS 578T breast) of 1.84 µM and a TGI (HS 578T breast) of 8.15 µM. For the same compound, the GI50 (SF-539 CNS) was 1.52 µM, the TGI (SF-539 CNS) was 2.92 µM and the GI50 (SK-OV-3 ovarian) was 1.58 µM. For the same compound, the TGI (SK-OV-3 ovarian) was 3.15 µM, the GI50 (DU-145 prostate) was 1.23 µM and the TGI (DU-145 prostate) was 2.6 µM. The GI50 (UO-31 renal) was 1.11 µM, the TGI (UO-31 renal) was 2.43 µM and the GI50 (SF-268 CNS) was 1.42 µM. For the same compound, the TGI (SF-268 CNS) was 3.24 µM, the GI50 (SK-MEL-28 melanoma) was 1.65 µM and the TGI (SK-MEL-28 melanoma) was 3.24 µM. The GI50 (NCI-H522 lung) was 0.388 µM and the TGI (NCI-H522 lung) was 1.63 µM.
`CNC(=O)ON(C(C)=O)C(=O)NC` gave a TGI (NCI-H460 lung) of 220 µM, a GI50 (SK-MEL-2 melanoma) of 38.3 µM and a TGI (SK-MEL-2 melanoma) of 98.5 µM. The GI50 (HS 578T breast) was 49.9 µM, the TGI (HS 578T breast) was 216 µM and the TGI (SF-539 CNS) was 145 µM. The TGI (SK-OV-3 ovarian) was 276 µM, the TGI (DU-145 prostate) was 135 µM and the TGI (UO-31 renal) was 114 µM. It also gave a TGI (SF-268 CNS) of 323 µM, a TGI (SK-MEL-28 melanoma) of 159 µM and a TGI (NCI-H522 lung) of 73.5 µM.

Source: PubChem BioAssay (NCI)
